Results taken from patent US12157730B2, “Heteroaryl derivative, method for producing same, and pharmaceutical composition comprising same as effective component” (VORONOI INC., priority 2019, dated 2024).

What follows are compounds tested against T1, Ba/F3 cell EGFR Exon20 ins NPH (Homo sapiens, UniProt P00533, INS773NPH) (assay: Ba/F3 cell proliferation suppression, EGFR Exon20 ins NPH). Details: GI50 class; Ba/F3 cell line with NPH inserted at Exon20 of EGFR; 72 hours.
T1 construct: expressed in transfected cells; host or cells: Ba/F3
Type: cell-based
In short: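 Seed 3000–5000 cells/well; after 24 h add compound (12 conc., 0.3 nM–50 um final); incubate 72 h; add CellTiter-Glo, 10 min room temperature; read luminescence; GI50 from % growth vs control, triplicate.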

SMILES | Ba/F3 (NPH) Activity
C=CC(=O)Nc1cc(Nc2cc(N3OCC[C@@H]3c3ccc(F)c(F)c3)ncn2)c(OC)cc1N1CC[C@@H](N(C)C)C1 [compound 577, N-(5-((6-((R)-3-(3,4-difluorophenyl)isoxazolidine-2-yl)pyrimidine-4-yl)amino)-2-((R)-3-(dimethylamino)pyrolidine-1-yl)-4-methoxyphenyl) acrylamide] | A (GI50 < 50 nM)
C#Cc1cccc([C@H]2CCON2c2cc(Nc3cc(NC(=O)C=C)c(N4CCC(N5CCN(C)CC5)CC4)cc3OC)ncn2)c1 [compound 649, N-(5-((6-((R)-3-(3-ethynylphenyl)isoxazolidine-2-yl)pyrimidine-4-yl)amino)-4-methoxy-2-(4-(4-methylpiperazine-1-yl)piperidine-1-yl)phenyl) acrylamide] | A (GI50 < 50 nM)
C=CC(=O)Nc1cc(Nc2cc(N3OCC[C@@H]3c3ccc(Cl)cc3F)ncn2)c(OC)cc1N1CC[C@H](N2CCOCC2)C1 [compound 407, N-(5-((6-((R)-3-(4-chloro-2-fluorophenyl)isoxazolidine-2-yl)pyrimidine-4-yl)amino)-4-methoxy-2-((S)-3-morpholinopyrolidine-1-yl)phenyl)acrylamide] | B (50 nM ≤ GI50 < 500 nM)
C=CC(=O)Nc1cc(Nc2cc(N3OCC[C@@H]3c3cccc(OC)c3)ncn2)c(OC)cc1N1CCC(N2CCN(C)CC2)CC1 [Example 40, N-(4-methoxy-5-((6-((R)-3-(3-methoxyphenyl)isoxazolidine-2-yl)pyrimidine-4-yl)amino)-2-(4-(4-methylpiperazine-1-yl)piperidine-1-yl)phenyl) acrylamide] | B (50 nM ≤ GI50 < 500 nM)
C=CC(=O)Nc1cc(Nc2cc(N3OCC[C@@H]3c3ccc(F)cc3F)ncn2)c(OC)cc1N1CCC(N2CCOCC2)CC1 [compound 378, N-(5-((6-((R)-3-(2,4-difluorophenyl)isoxazolidine-2-yl)pyrimidine-4-yl)amino)-4-methoxy-2-(4-morpholinopiperidine-1-yl)phenyl)acrylamide] | A (GI50 < 50 nM)
C=CC(=O)Nc1cc(Nc2cc(N3OCC[C@@H]3c3ccc(F)c(F)c3)ncn2)c(OC)cc1N1CCC(N2CCN(C3CCC3)CC2)CC1 [Example 186, N-(2-(4-(4-cyclobutylpiperazine-1-yl)piperidine-1-yl)-5-((6-((R)-3-(3,4-difluorophenyl)isoxazolidine-2-yl)pyrimidine-4-yl)amino)-4-methoxyphenyl) acrylamide] | A (GI50 < 50 nM)
C=CC(=O)Nc1cc(Nc2cc(N3OCC[C@@H]3c3cccc(F)c3F)ncn2)c(OC)cc1N1CCC(N2CCN(C(C)=O)CC2)CC1 [compound 339, N-(2-(4-(4-acetylpiperazine-1-yl)piperidine-1-yl)-5-((6-((R)-3-(2,3-difluorophenyl)isoxazolidine-2-yl)pyrimidine-4-yl)amino)-4-methoxyphenyl) acrylamide] | A (GI50 < 50 nM)
C=CC(=O)Nc1cc(Nc2cc(N3OCC[C@@H]3c3cc(F)ccc3F)ncn2)c(OC)cc1N1CC[C@H](N(C)C)C1 [compound 301, N-(5-((6-((R)-3-(2,5-difluorophenyl)isoxazolidine-2-yl)pyrimidine-4-yl)amino)-2-((S)-3-(dimethylamino)pyrolidine-1-yl)-4-methoxyphenyl) acrylamide] | A (GI50 < 50 nM)
C=CC(=O)Nc1cc(Nc2cc(N3OCC[C@@H]3c3cccc(F)c3Cl)ncn2)c(OC)cc1N1CCC(N2C[C@@H]3C[C@H]2CO3)CC1 [compound 640, N-(2-(4-((1S,4S)-2-oxa-5-azabicyclo[2.2.1]heptane-5-yl)piperidine-1-yl)-5-((6-((R)-3-(2-chloro-3-fluorophenyl)isoxazolidine-2-yl)pyrimidine-4-yl)amino)-4-methoxyphenyl) acrylamide] | A (GI50 < 50 nM)
C=CC(=O)Nc1cc(Nc2cc(N3OCC[C@@H]3c3ccc(C)nc3)ncn2)c(OC)cc1N1CCN(C(C)=O)CC1 [Example 49, N-(2-(4-acetylpiperazine-1-yl)-4-methoxy-5-((6-((R)-3-(6-methylpyridine-3-yl)isoxazolidine-2-yl)pyrimidine-4-yl)amino)phenyl) acrylamide] | C (500 nM ≤ GI50 < 5000 nM)
C=CC(=O)Nc1cc(Nc2cc(N3OCC[C@@H]3c3cccc(F)c3F)ncn2)c(OC)cc1N1CCC(N2CCN(C)[C@@H](C)C2)CC1 [compound 335, N-(5-((6-((R)-3-(2,3-difluorophenyl)isoxazolidine-2-yl)pyrimidine-4-yl)amino)-2-(4-((S)-3,4-dimethylpiperazine-1-yl)piperidine-1-yl)-4-methoxyphenyl) acrylamide] | A (GI50 < 50 nM)
C=CC(=O)Nc1cc(Nc2cc(N3OCC[C@@H]3c3ccc(C)nc3)ncn2)c(OC)cc1N1CCC(N2CCN(C)CC2)CC1 [Example 47, N-(4-methoxy-2-(4-(4-methylpiperazine-1-yl)piperidine-1-yl)-5-((6((R)-3-(6-methylpyridine-3-yl)isoxazolidine-2-yl)pyrimidine-4-yl)amino)phenyl) acrylamide] | B (50 nM ≤ GI50 < 500 nM)
C=CC(=O)Nc1cc(Nc2cc(N3OCC[C@@H]3c3ccc(C)nc3)ncn2)c(OC)cc1N1CCC(N2CCOCC2)CC1 [Example 45, N-(4-methoxy-5-((6-((R)-3-(6-methylpyridine-3-yl)isoxazolidine-2-yl)pyrimidine-4-yl)amino)-2-(4-morpholinopiperidine-1-yl)phenyl) acrylamide] | B (50 nM ≤ GI50 < 500 nM)
C=CC(=O)Nc1cc(Nc2cc(N3OCC[C@@H]3c3cc(F)ccc3F)ncn2)c(OC)cc1N1CCC(N2C[C@@H](C)N(C3CC3)C[C@H]2C)CC1 [Example 172, N-(2-(4-((2R,5R)-4-cyclopropyl-2,5-dimethylpiperazine-1-yl)piperidine-1-yl)-5-((6-((R)-3-(2,5-difluorophenyl)isoxazolidine-2-yl)pyrimidine-4-yl)amino)-4-methoxypheny) acrylamide] | A (GI50 < 50 nM)

The remaining lines, values ahead:

Ba/F3 (NPH) Activity | SMILES
A (GI50 < 50 nM) | C=CC(=O)Nc1cc(Nc2cc(N3OCC[C@@H]3c3cc(F)ccc3F)ncn2)c(OC)cc1N1CCC(N2CCCN(C3CC3)CC2)CC1 [compound 829, N-(2-(4-(4-cyclopropyl-1,4-diazepane-1-yl)piperidine-1-yl)-5-((6-((R)-3-(2,5-difluorophenyl)isoxazolidine-2-yl)pyrimidine-4-yl)amino)-4-methoxyphenyl) acrylamide]
B (50 nM ≤ GI50 < 500 nM) | C=CC(=O)Nc1cc(Nc2cc(N3OCC[C@@H]3c3cc(F)cc(Cl)c3F)ncn2)c(OC)cc1N1CCN(C2CC2)CC1 [compound 939, N-(5-((6-((R)-3-(3-chloro-2,5-difluorophenyl)isoxazolidine-2-yl)pyrimidine-4-yl)amino)-2-(4-cyclopropylpiperazine-1-yl)-4-methoxyphenyl) acrylamide]
A (GI50 < 50 nM) | C=CC(=O)Nc1cc(Nc2cc(N3OCC[C@@H]3c3cc(F)ccc3F)ncn2)c(OC)cc1N1CCC(N2CCN(CC)CC2)CC1 [compound 767, N-(5-((6-((R)-3-(2,5-difluorophenyl)isoxazolidine-2-yl)pyrimidine-4-yl)amino)-2-(4-(4-ethylpiperazine-1-yl)piperidine-1-yl)-4-methoxyphenyl) acrylamide]
A (GI50 < 50 nM) | C=CC(=O)Nc1cc(Nc2cc(N3OCC[C@@H]3c3cccc(Cl)c3F)ncn2)c(OC)cc1N1CC[C@@H](N(C)C)C1 [compound 834, N-(5-((6-((R)-3-(3-chloro-2-fluorophenyl)isoxazolidine-2-yl)pyrimidine-4-yl)amino)-2-((R)-3-(dimethylamino)pyrolidine-1-yl)-4-methoxyphenyl) acrylamide]
B (50 nM ≤ GI50 < 500 nM) | C=CC(=O)Nc1cc(Nc2cc(N3OCC[C@@H]3Cc3ccccc3)ncn2)c(OC)cc1-n1ccnc1C [compound 960, N-(5-((6-((S)-3-benzylisoxazolidine-2-yl)pyrimidine-4-yl)amino)-4-methoxy-2-(2-methyl-1H-imidazole-1-yl)phenyl)acrylamide]
A (GI50 < 50 nM) | C=CC(=O)Nc1cc(Nc2cc(N3OCC[C@@H]3c3cc(F)ccc3F)ncn2)c(OC)cc1N1CCN(C)CC1 [compound 818, N-(5-((6-((R)-3-(2,5-difluorophenyl)isoxazolidine-2-yl)pyrimidine-4-yl)amino)-4-methoxy-2-(4-methylpiperazine-1-yl)phenyl)acrylamide]
B (50 nM ≤ GI50 < 500 nM) | C=CC(=O)Nc1cc(Nc2cc(N3OCC[C@H]3Cc3ccccc3)ncn2)c(OC)cc1N(C)CCN(C)C [compound 973, N-(5-((6-((R)-3-benzylisoxazolidine-2-yl)pyrimidine-4-yl)amino)-2-((2-(dimethylamino)ethyl) (methyl)amino)-4-methoxyphenyl) acrylamide]
A (GI50 < 50 nM) | C=CC(=O)Nc1cc(Nc2cc(N3OCC[C@@H]3c3ccc(Cl)cc3)ncn2)c(OC)cc1N1CCC(N2CC[C@H](N(C)C)C2)CC1 [compound 784, N-(5-((6-((R)-3-(4-chlorophenyl)isoxazolidine-2-yl)pyrimidine-4-yl)amino)-2-(4-((S)-3-(dimethylamino)pyrolidine-1-yl)piperidine-1-yl)-4-methoxyphenyl) acrylamide]
A (GI50 < 50 nM) | C=CC(=O)Nc1cc(Nc2cc(N3OCC[C@@H]3Cc3ccc(C(F)(F)F)cc3)ncn2)c(OC)cc1N1CCC(N2C[C@H]3C[C@@H]2CO3)CC1 [compound 1051, N-(2-(4-((1R,4R)-2-oxa-5-azabicyclo [2.2.1]heptane-5-yl)piperidine-1-yl)-4-methoxy-5-((6-((S)-3-(4-(trifluoromethyl)benzyl)isoxazolidine-2-yl)pyrimidine-4-yl)amino)phenyl)acrylamide]
